CC(C)(C)OC(=O)N1CCC[C@H]1C(=O)O
solubility (mole fraction)
Conditions | 283.15 K | 288.15 K | 293.15 K | 298.15 K | 303.15 K | 313.15 K | 323.15 K
in 2-butanone | 0.0371 | – | 0.0532 | – | 0.0687 | 0.0925 | 0.125
in acetone | 0.0457 | – | 0.06 | – | 0.075 | 0.0965 | 0.129
in acetonitrile | 0.0113 | – | 0.0166 | – | 0.0247 | 0.0379 | 0.054
in dichloromethane | 0.0896 | 0.098 | 0.107 | 0.116 | 0.125 | – | –
in ethanol | 0.0968 | – | 0.111 | – | 0.133 | 0.172 | 0.215
in ethyl acetate | 0.0217 | – | 0.0303 | – | 0.0392 | 0.0494 | 0.0606
in isobutanol | 0.072 | – | 0.0942 | – | 0.12 | 0.143 | 0.166
in isopropanol | 0.0971 | – | 0.114 | – | 0.134 | 0.168 | 0.208
in methanol | 0.115 | – | 0.15 | – | 0.196 | 0.24 | 0.297
in methyl acetate | 0.0252 | – | 0.0339 | – | 0.0436 | 0.055 | 0.0698
in n-butanol | 0.0889 | – | 0.103 | – | 0.126 | 0.149 | 0.178
in n-propanol | 0.0944 | – | 0.109 | – | 0.132 | 0.16 | 0.19
in sec-butanol | 0.0968 | – | 0.127 | – | 0.157 | 0.193 | 0.232
in water | 6.6e-05 | – | 0.000204 | – | 0.000593 | 0.000959 | 0.00144

— BigSolDB 2.1
